Experimental data from US8802737B2, “Method for improving tetracycline-resistance of Acinetobacter baumannii” (priority 2011, dated 2014).
Values after ≈ are worked out from the molar mass of the structure shown.

Key:
Assay type in all cases: cell-based, Acinetobacter baumannii
A. baumannii strain AB1 = assay: MIC by broth micro-dilution, clinical strain AB1; conditions: for MIC: Acinetobacter baumannii, read-out: susceptibilities to antibiotics (MICs); for MIC, ginger compound only: strain AB1, 10^5 cfu/mL, no tetracycline
Excerpt: (§1) Precisely, five strains of clinical A. baumannii, named AB1, AB2, AB4, AB5, AB6, are isolated from patients in Kaohsiung Medical University Hospital, 1600-bed tertiary referral medical center in Taiwan, wherein each of strains is from different clones by genotyping and collected from different samples, for example, sputum, wound pus, blood, pleural fluid, and bronchial washing. All of the five strains of A. baumannii are stored in trypticase soy broth (Difco Laboratories, Detroit, Mich.) with 20% glycerol at −80° C. until the following use.
(§2) Some of the antibiotics including ampicillin, cefazolin and cefmetazole have no MIC breakpoints according to CLSI.
(§3) In the present embodiment, 10^5 cfu/mL of each strain of A. baumannii are prepared, and the medication test of the present invention is carried out by respectively providing the medication of the present invention and the ginger compound only to each strain of A. baumannii. In this way, the antimicrobial activities of the medication of the present invention and of the ginger compound only are monitored and recorded respectively.

A. baumannii strain AB5 = assay: MIC by broth micro-dilution, clinical strain AB5; conditions: for MIC: Acinetobacter baumannii, read-out: susceptibilities to antibiotics (MICs); for MIC, ginger compound only: strain AB5, 10^5 cfu/mL, no tetracycline
Excerpt: as §1, §2, §3

A. baumannii strain AB6 = assay: MIC by broth micro-dilution, clinical strain AB6; conditions: for MIC: Acinetobacter baumannii, read-out: susceptibilities to antibiotics (MICs); for MIC, ginger compound only: strain AB6, 10^5 cfu/mL, no tetracycline
Excerpt: as §1, §2, §3

A. baumannii strain AB4 = assay: MIC by broth micro-dilution, clinical strain AB4; conditions: for MIC: Acinetobacter baumannii, read-out: susceptibilities to antibiotics (MICs); for MIC, ginger compound only: strain AB4, 10^5 cfu/mL, no tetracycline
Excerpt: as §1, §2, §3

A. baumannii strain AB2 = assay: MIC by broth micro-dilution, clinical strain AB2; conditions: for MIC: Acinetobacter baumannii, read-out: susceptibilities to antibiotics (MICs); for MIC, ginger compound only: strain AB2, 10^5 cfu/mL, no tetracycline
Excerpt: as §1, §2, §3

| Compound | MIC (A. baumannii strain AB1; strain AB1, LB broth) [µg/mL] | MIC (A. baumannii strain AB5; strain AB5, LB broth) [µg/mL] | MIC (A. baumannii strain AB6; strain AB6, LB broth) [µg/mL] | MIC (A. baumannii strain AB4; strain AB4, LB broth) [µg/mL] | MIC (A. baumannii strain AB2; strain AB2, LB broth) [µg/mL] | other results |
| --- | --- | --- | --- | --- | --- | --- |
| CC1(C)S[C@@H]2[C@H](NC(=O)[C@H](N)c3ccccc3)C(=O)N2[C@H]1C(=O)O [Ampicillin] | ≥ 512 | ≥ 512 | ≥ 512 | ≥ 512 | ≥ 512 | – |
| Cc1nnc(SCC2=C(C(=O)O)N3C(=O)[C@@H](NC(=O)Cn4cnnn4)[C@H]3SC2)s1 [Cefazolin] | ≥ 64 | ≥ 64 | ≥ 64 | ≥ 64 | ≥ 64 | – |
| CO/N=C(\C(=O)N[C@@H]1C(=O)N2C(C(=O)[O-])=C(C[N+]3(C)CCCC3)CS[C@H]12)c1csc(N)n1 [Cefepime] | ≥ 64 | ≥ 64 | ≥ 64 | ≥ 64 | ≥ 64 | – |
| CO[C@@]1(NC(=O)CSCC#N)C(=O)N2C(C(=O)O)=C(CSc3nnnn3C)CS[C@@H]21 [Cefmetazole] | ≥ 64 | ≥ 64 | ≥ 64 | ≥ 64 | ≥ 64 | – |
| CC(C)(O/N=C(\C(=O)N[C@@H]1C(=O)N2C(C(=O)[O-])=C(C[n+]3ccccc3)CS[C@H]12)c1csc(N)n1)C(=O)O [Ceftazidime] | ≥ 64 | ≥ 64 | ≥ 64 | ≥ 64 | ≥ 64 | – |
| CO/N=C(\C(=O)N[C@@H]1C(=O)N2C(C(=O)O)=C(CSc3nc(=O)c(=O)[nH]n3C)CS[C@H]12)c1csc(N)n1 [Ceftriaxone] | ≥ 64 | ≥ 64 | ≥ 64 | ≥ 64 | ≥ 64 | – |
| C[C@@H](O)[C@H]1C(=O)N2C(C(=O)O)=C(S[C@@H]3CN[C@H](C(=O)N(C)C)C3)[C@H](C)[C@H]12 [Meropenem] | ≥ 16 | ≥ 16 | ≥ 16 | ≥ 16 | ≥ 16 | – |
| CCN1CCN(C(=O)N[C@@H](C(=O)N[C@@H]2C(=O)N3[C@@H]2SC(C)(C)[C@@H]3C(=O)O)c2ccccc2)C(=O)C1=O [Piperacillin] | ≥ 128 | ≥ 128 | ≥ 128 | ≥ 128 | ≥ 128 | – |
| CN(C)[C@@H]1C(O)=C(C(N)=O)C(=O)[C@@]2(O)C(O)=C3C(=O)c4c(O)cccc4[C@@](C)(O)[C@H]3C[C@@H]12 [Tetracycline] | 32 (≈ 72 µM) | ≥ 512 | ≥ 512 | ≥ 512 | ≥ 512 | – |
| CCCCCC(=O)CC(=O)/C=C/c1ccc(O)c(OC)c1 [[6]-dehydrogingerdione] | – | – | – | – | – | MIC, ginger compound only (A. baumannii strain AB1): 198.1 µM (≈ 57.5 µg/mL); MIC, ginger compound only (A. baumannii strain AB5): 178.5 µM (≈ 51.8 µg/mL); MIC, ginger compound only (A. baumannii strain AB6): 207.1 µM (≈ 60.1 µg/mL); MIC, ginger compound only (A. baumannii strain AB4): 137.6 µM (≈ 40 µg/mL); MIC, ginger compound only (A. baumannii strain AB2): 166.2 µM (≈ 48.3 µg/mL) |
| CCCCC[C@H](O)CC(=O)CCc1ccc(O)c(OC)c1 [[6]-gingerol] | – | – | – | – | – | MIC, ginger compound only (A. baumannii strain AB1): 226.4 µM (≈ 66.7 µg/mL); MIC, ginger compound only (A. baumannii strain AB5): 277.3 µM (≈ 81.6 µg/mL); MIC, ginger compound only (A. baumannii strain AB6): 275.6 µM (≈ 81.1 µg/mL); MIC, ginger compound only (A. baumannii strain AB4): 297.1 µM (≈ 87.5 µg/mL); MIC, ginger compound only (A. baumannii strain AB2): 226.8 µM (≈ 66.8 µg/mL) |
| CCCCC/C=C/C(=O)CCc1ccc(O)c(OC)c1 [[6]-shogaol] | – | – | – | – | – | MIC, ginger compound only (A. baumannii strain AB1): 208.1 µM (≈ 57.5 µg/mL); MIC, ginger compound only (A. baumannii strain AB5): 261.3 µM (≈ 72.2 µg/mL); MIC, ginger compound only (A. baumannii strain AB6): 347.2 µM (≈ 96 µg/mL); MIC, ginger compound only (A. baumannii strain AB4): 279.7 µM (≈ 77.3 µg/mL); MIC, ginger compound only (A. baumannii strain AB2): 274.0 µM (≈ 75.7 µg/mL) |
| CCCCCCCCC[C@H](O)CC(=O)CCc1ccc(O)c(OC)c1 [[10]-gingerol] | – | – | – | – | – | MIC, ginger compound only (A. baumannii strain AB1): 144.6 µM (≈ 50.7 µg/mL); MIC, ginger compound only (A. baumannii strain AB5): 207.5 µM (≈ 72.7 µg/mL); MIC, ginger compound only (A. baumannii strain AB6): 198.1 µM (≈ 69.4 µg/mL); MIC, ginger compound only (A. baumannii strain AB4): 196.0 µM (≈ 68.7 µg/mL); MIC, ginger compound only (A. baumannii strain AB2): 162.3 µM (≈ 56.9 µg/mL) |
| Gentamicin | – | – | – | – | – | susceptibilities to antibiotics (MICs) (A. baumannii strain AB1; strain AB1, LB broth): ≧16 μg/ml; susceptibilities to antibiotics (MICs) (A. baumannii strain AB5; strain AB5, LB broth): ≧16 μg/ml; susceptibilities to antibiotics (MICs) (A. baumannii strain AB6; strain AB6, LB broth): ≧16 μg/ml; susceptibilities to antibiotics (MICs) (A. baumannii strain AB4; strain AB4, LB broth): ≧16 μg/ml; susceptibilities to antibiotics (MICs) (A. baumannii strain AB2; strain AB2, LB broth): ≧16 μg/ml |
